Test results published in patent publication US10703756B2, “Pyrrolo[2,3-D]pyrimidinyl, pyrrolo[2,3-B]pyrazinyl, pyrrolo[2,3-B]pyridinyl acrylamides and epoxides thereof” (Pfizer Inc., priority 2015, dated 2020).

Key:
JAK3 enzyme [1] = target: T1, JAK3 enzyme (Homo sapiens, UniProt P52333); experiment: JAK Caliper Enzyme Assay at 1 mM ATP; format: biochemical
T1 sequence (P52333 1-1124): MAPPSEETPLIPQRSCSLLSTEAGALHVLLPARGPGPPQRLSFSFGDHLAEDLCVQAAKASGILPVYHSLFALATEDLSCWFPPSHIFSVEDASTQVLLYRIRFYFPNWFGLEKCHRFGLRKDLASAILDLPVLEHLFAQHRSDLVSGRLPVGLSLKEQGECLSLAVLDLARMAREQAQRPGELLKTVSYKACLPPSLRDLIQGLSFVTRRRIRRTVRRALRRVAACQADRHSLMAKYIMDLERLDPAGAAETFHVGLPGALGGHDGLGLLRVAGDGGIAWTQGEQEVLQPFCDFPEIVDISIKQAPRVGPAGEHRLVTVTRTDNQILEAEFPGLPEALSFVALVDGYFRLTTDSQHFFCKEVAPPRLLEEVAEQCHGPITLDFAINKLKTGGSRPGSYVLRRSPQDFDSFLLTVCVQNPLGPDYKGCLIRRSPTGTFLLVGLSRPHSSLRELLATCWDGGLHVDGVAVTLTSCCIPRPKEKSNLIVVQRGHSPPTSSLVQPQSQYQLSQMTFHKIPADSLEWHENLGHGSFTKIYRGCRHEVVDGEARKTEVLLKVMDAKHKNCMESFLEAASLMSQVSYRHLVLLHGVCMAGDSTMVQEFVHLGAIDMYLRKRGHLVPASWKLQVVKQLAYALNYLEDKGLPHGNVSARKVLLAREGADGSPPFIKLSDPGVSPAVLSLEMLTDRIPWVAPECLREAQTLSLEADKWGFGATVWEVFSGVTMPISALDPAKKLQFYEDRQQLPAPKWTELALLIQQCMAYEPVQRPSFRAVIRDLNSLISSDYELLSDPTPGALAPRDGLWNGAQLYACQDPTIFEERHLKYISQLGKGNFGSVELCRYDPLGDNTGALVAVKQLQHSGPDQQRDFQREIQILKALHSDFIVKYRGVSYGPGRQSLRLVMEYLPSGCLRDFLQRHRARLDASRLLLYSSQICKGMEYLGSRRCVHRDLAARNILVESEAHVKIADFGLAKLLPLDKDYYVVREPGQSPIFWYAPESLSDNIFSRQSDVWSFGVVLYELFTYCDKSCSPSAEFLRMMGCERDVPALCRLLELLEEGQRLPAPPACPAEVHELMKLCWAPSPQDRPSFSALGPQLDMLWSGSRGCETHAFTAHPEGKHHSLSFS
Outline: (§1)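 First, compound stocks in DMSO were serially diluted half-log over 11 points, starting at 600 μM. Next, reactions ran with batch-optimized enzyme and timing targeting 20%-30% phosphorylation. Finally, wells were sampled and product separated from substrate peptide electrophoretically.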

JAK3 enzyme [2] = target: T1, JAK3 enzyme; experiment: JAK Caliper Enzyme Assay at 4 μM ATP; format: biochemical
Outline: as §1

[3] = tested on: IL-15 induced P-STAT5 in human PBMC; experiment: PBMC IL-15 Induced P-STAT5; format: cell-based; conditions: human PBMC, IL-15 final 41 ng/mL; read-out: PBMC IL15_pSTAT5_IC50
Outline: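 Thawed human PBMC, rested in human plasma, were preincubated 15 min at 37 °C with compound (0.2% DMSO), then stimulated 15 min with IL-15 at 41 ng/mL final. After paraformaldehyde fixation and methanol permeabilisation, Alexa Fluor 647 anti-STAT5 staining overnight at 4 °C was analysed by flow cytometry on total lymphocytes.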

[4] = tested on: IL-15 induced STAT5 phosphorylation in human whole blood lymphocytes; experiment: HWB IL-15 Induced STAT5 Phosphorylation Assay; format: cell-based; conditions: Lymphocyte, IL-15 final 50 ng/ml, read-out: HWB_IL15 pSTAT5 IC50
Method: HWB IL-15 Induced STAT5 Phosphorylation Assay
After serial dilution of the test compounds 1:2 in DMSO at desired concentration (500× of final), the compounds were further diluted in PBS (by adding 4 μL compound/DMSO in 96 μL PBS, [DMSO]=4%, 20× final). To 96-well polypropylene plates were added 90 μl HWB (heparin treated Human Whole Blood)/well, followed by 5 μl/well 4% DMSO in D-PBS or various concentrations of 20× inhibitor in 4% DMSO in D-PBS (w/o Ca^+2 or Mg^+2) to give 1× in 0.2% DMSO. After mixing and incubating for 45 minutes at 37° C., 5 μl D-PBS (unstimulated control) or 20× stocks of 5 μl human IL-15 (final concentration is 50 ng/ml) were added, and mixed three times. After incubating 15 minutes at 37° C., 1× Lyse/Fix Buffer (BD Phosflow 5× Lyse/Fix Buffer) was added to all wells at 1000 μl/well, then incubated for 20 minutes at 37° C. and spun 5 mins at 1200 rpm. After washing in 1000 μl FACS buffer 1× and spinning for 5 mins at 1200 rpm, 400 μl ice cold Perm Buffer III were added to each well. After mixing gently (1-2×) and incubating on ice for 30 minutes, spinning for 5 mins at 1200 rpm without interruption, and washing 1× in cold […] FACS buffer (D-PBS containing 0.1% BSA and 0.1% sodium azide) 250 μl/well of the desired AlexaFluor647-conjugated anti-phospho STATS antibody at 1:125 dilution in FACS buffer was added. Following incubating at 4° C. over night, all the samples were transferred to 96-well polypropylene U-bottom plate, and checked by flow cytometry gated on total lymphocytes.

[5] = Stability of JAK3 Covalent Inhibitors in Human Whole Blood; format: in vitro ADME; conditions: both sexes, 1 μM test compound, 37° C., 180 min incubation, read-out: Human blood stability t1/2
Outline: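 Compound at 1 μM final incubated in duplicate at 37° C for 180 min in fresh K2-EDTA whole blood […]. Samples quenched in acetonitrile with internal standard; LC-MS/MS peak area ratios gave % parent remaining over time.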

| Compound | IC50 (JAK3 enzyme [1]) [nM] | IC50 (JAK3 enzyme [2]) [nM] | IC50 [4] [nM] | half-life at 1 μM [5] [h] | IC50 [3] [nM] |
| --- | --- | --- | --- | --- | --- |
| C=CC(=O)N1CCC(Nc2cnc3[nH]cc(C(=O)NCc4ccc(Cl)cn4)c3n2)CC1 [Example 186, 2-[(1-acryloylpiperidin-4-yl)amino]-N-[(5-chloropyridin-2-yl)methyl]-5H-pyrrolo[2,3-b]pyrazine-7-carboxamide] | 15 | 0.485 | 870 | – | 213 |
| C=CC(=O)N1CC[C@@H](Nc2cnc3[nH]cc(C(=O)NCCC(F)(F)F)c3n2)[C@@H](OC)C1 [Example 278, 2-{[(3S,4R)-1-acryloyl-3-methoxypiperidin-4-yl]amino}-N-(3,3,3-trifluoropropyl)-5H-pyrrolo[2,3-b]pyrazine-7-carboxamide] | 70 | 1.23 | 2460 | – | 272 |
| C=CC(=O)N1CCC(Nc2cnc3[nH]cc(C(=O)NCc4sc(C)nc4C(F)(F)F)c3n2)CC1 [Example 195, 2-[(1-acryloylpiperidin-4-yl)amino]-N-{[2-methyl-4-(trifluoromethyl)-1,3-thiazol-5-yl]methyl}-5H-pyrrolo[2,3-b]pyrazine-7-carboxamide] | 7 | 0.494 | 688 | – | 82.7 |
| C=CC(=O)N1CC[C@H](Nc2cnc3[nH]cc(C(=O)NCCC(F)(F)F)c3n2)[C@H](OC)C1 [Example 305, 2-{[(3R,4S)-1-acryloyl-3-methoxypiperidin-4-yl]amino}-N-(3,3,3-trifluoropropyl)-5H-pyrrolo[2,3-b]pyrazine-7-carboxamide] | 53 | 0.496 | 6380 | – | 278 |
| C=CC(=O)N1CC[C@@H](Nc2cnc3[nH]cc(C(=O)NC4CCCC4)c3n2)[C@@H](OC)C1 (racemic) [Example 299, Racemic-2-{[(3S,4R)-1-acryloyl-3-methoxypiperidin-4-yl]amino}-N-cyclopentyl-5H-pyrrolo[2,3-b]pyrazine-7-carboxamide] | 57 | 1.21 | 913 | – | 305 |
| C=CC(=O)N1CCN(c2cnc3[nH]cc(C(=O)NC4CCCOC4)c3n2)CC1(C)C (racemic) [Example 149, Racemic-2-(4-acryloyl-3,3-dimethylpiperazin-1-yl)-N-(tetrahydro-2H-pyran-3-yl)-5H-pyrrolo[2,3-b]pyrazine-7-carboxamide] | 134 | 0.565 | 4240 | – | 163 |
| C=CC(=O)N1CCN(c2cnc3[nH]cc(C(=O)NC4CCCC4)c3n2)CC1(C)C [Example 334, 2-(4-acryloyl-3,3-dimethylpiperazin-1-yl)-N-cyclopentyl-5H-pyrrolo[2,3-b]pyrazine-7-carboxamide] | 93 | 0.703 | 3920 | – | 73.6 |
| C=CC(=O)N1CCC[C@H]1COc1cnc2[nH]cc(C(=O)N[C@@H](C)COC)c2n1 (single isomer, unassigned) [Example 8] | 46 | 0.355 | – | > 6 | 133 |
| C=CC(=O)N1C[C@@H](Nc2cnc3[nH]cc(C(=O)N[C@@H](C)COC)c3n2)CC[C@H]1C (single isomer, unassigned) [Example 67] | 25 | 0.511 | – | > 6 | 439 |

The next lines start with results.

| IC50 (JAK3 enzyme [1]) [nM] | IC50 (JAK3 enzyme [2]) [nM] | IC50 [4] [nM] | half-life at 1 μM [5] [h] | Compound | IC50 [3] [nM] |
| --- | --- | --- | --- | --- | --- |
| 47 | 0.414 | 2020 | – | C=CC(=O)N1CCC(Oc2cnc3[nH]cc(C(=O)N[C@@H]4CC[C@H](F)C4)c3n2)CC1 [Example 199, 2-[(1-acryloylpiperidin-4-yl)oxy]-N-[(1R,3S)-3-fluorocyclopentyl]-5H-pyrrolo[2,3-b]pyrazine-7-carboxamide] | 250 |
| 22 | 0.2 | 528 | – | C=CC(=O)N1CCN(c2cnc3[nH]cc(C(=O)NCC4CCCC4)c3n2)CC1 [Example 266, 2-(4-acryloylpiperazin-1-yl)-N-(cyclopentylmethyl)-5H-pyrrolo[2,3-b]pyrazine-7-carboxamide] | 64.2 |
| 29 | 0.194 | 524 | – | C=CC(=O)N1CCN(c2cnc3[nH]cc(C(=O)NCC(C)(C)C)c3n2)CC1 [Example 304, 2-(4-acryloylpiperazin-1-yl)-N-(2,2-dimethylpropyl)-5H-pyrrolo[2,3-b]pyrazine-7-carboxamide] | 96.8 |
| 18 | 0.596 | 850 | – | C=CC(=O)N1CCC(Nc2cnc3[nH]cc(C(=O)NCC(F)(F)C(F)(F)F)c3n2)CC1 [Example 179, 2-[(1-acryloylpiperidin-4-yl)amino]-N-(2,2,3,3,3-pentafluoropropyl)-5H-pyrrolo[2,3-b]pyrazine-7-carboxamide] | 94.8 |
| 31 | 0.343 | 765 | – | C=CC(=O)N1CCN(c2cnc3[nH]cc(C(=O)NCC(C)CC(F)(F)F)c3n2)CC1 (racemic) [Example 279, Racemic-2-(4-acryloylpiperazin-1-yl)-N-(4,4,4-trifluoro-2-methylbutyl)-5H-pyrrolo[2,3-b]pyrazine-7-carboxamide] | 107 |
| 8 | 0.426 | 1320 | – | C=CC(=O)N1CCC(Nc2cnc3[nH]cc(C(=O)NCc4cc(C(C)C)no4)c3n2)CC1 [Example 175, 2-[(1-acryloylpiperidin-4-yl)amino]-N-{[3-(propan-2-yl)-1,2-oxazol-5-yl]methyl}-5H-pyrrolo[2,3-b]pyrazine-7-carboxamide] | 77.3 |
| 26 | 0.24 | 373 | – | C=CC(=O)N1CCN(c2cnc3[nH]cc(C(=O)NC[C@H](C)CC(F)(F)F)c3n2)CC1 [Example 336, 2-(4-acryloylpiperazin-1-yl)-N-[(2R)-4,4,4-trifluoro-2-methylbutyl]-5H-pyrrolo[2,3-b]pyrazine-7-carboxamide] | 107 |
| 53 | 0.38 | 1020 | – | C=CC(=O)N1CCC(Oc2cnc3[nH]cc(C(=O)NCC(C)C)c3n2)CC1 [Example 222, 2-[(1-acryloylpiperidin-4-yl)oxy]-N-(2-methylpropyl)-5H-pyrrolo[2,3-b]pyrazine-7-carboxamide] | 280 |
